Assay results published in PubChem BioAssay (NCI).
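Following 48 hours of exposure in 96-well plates, responses at five concentrations were used to interpolate endpoints linearly. Abbreviation: GI50, concentration required for 50% inhibition of growth. TGI: concentration producing complete growth inhibition.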 Where a SMILES comes first, the peptide text is derived from it. [ ]: non-standard residue; d: D form. Ava = NCCCCC(=O)O; Mpa = O=C(O)CCS

Key:
Test in all cases: NCI-60 cell line screen, 48 h
M14 melanoma = test system: M14 melanoma
EKVX NSCLC = test system: EKVX NSCLC
BT-549 breast = test system: BT-549 breast
RXF 393 renal = test system: RXF 393 renal
OVCAR-3 ovarian = test system: OVCAR-3 ovarian
MDA-MB-231 breast = test system: MDA-MB-231 breast
MALME-3M melanoma = test system: MALME-3M melanoma
HS 578T breast = test system: HS 578T breast
NCI-H226 lung = test system: NCI-H226 lung
MCF7 breast = test system: MCF7 breast

Compound | TGI (M14 melanoma) [µM] | TGI (EKVX NSCLC) [µM] | TGI (BT-549 breast) [µM] | TGI (RXF 393 renal) [µM] | TGI (OVCAR-3 ovarian) [µM] | TGI (MDA-MB-231 breast) [µM] | TGI (MALME-3M melanoma) [µM] | TGI (HS 578T breast) [µM] | TGI (NCI-H226 lung) [µM] | TGI (MCF7 breast) [µM] | GI50 (M14 melanoma) [µM] | GI50 (OVCAR-3 ovarian) [µM]
Cc1cn(S(=O)(=O)c2ccccc2)c2c(OCc3ccccc3)cc([N+](=O)[O-])cc12 | > 100 | > 100 | > 100 | > 100 | > 100 | > 100 | > 100 | > 100 | > 100 | > 100 | – | –
CCN(CC)Cc1cc(N=Nc2c(O)ccc3c(N=Nc4ccc(O)c(CN(CC)CC)c4)c(O)ccc23)ccc1O | > 38.5 | 21.2 | 9.11 | > 23.1 | > 20.7 | 4.52 | 21.5 | > 38.7 | 22.7 | 13 | – | –
N=c1oc2cc(O)ccc2cc1C(=O)Nc1ccccn1 | > 100 | > 100 | > 100 | 99.7 | > 100 | > 100 | > 100 | > 100 | > 100 | > 100 | – | –
Nc1cc(CO)cc(Nc2c3ccccc3nc3ccccc23)c1 | 31.3 | 31.8 | 27.7 | 31.4 | 32.2 | 24.8 | 31.8 | 67.8 | 34.9 | 29.5 | – | –
Cc1cc2ncn(CC(=O)O)c2cc1C | > 100 | > 100 | > 100 | > 100 | > 100 | > 100 | > 100 | > 100 | > 100 | > 100 | – | –
CC(C#N)(NO)C(C)(C#N)NO (configuration not stated) | > 100 | > 100 | > 100 | > 100 | > 100 | > 100 | > 100 | > 100 | > 100 | > 100 | – | –
O=C1CCCC2=C1CC1=C(CCCC1=O)N2c1ccc(Cl)cc1 | > 100 | > 100 | > 100 | > 100 | > 100 | > 100 | > 100 | > 100 | > 100 | > 100 | – | –
COc1cc2c(cc1OC)C(CCN)=NCC2 | 32.8 | 59 | 33.6 | 30.4 | 35.2 | 30.8 | 33.1 | 59.9 | > 64.4 | 40.2 | – | –
Cc1ccc(C(=O)Nc2ccc(S(=O)(=O)O)c3cc(S(=O)(=O)O)cc(S(=O)(=O)O)c23)cc1NC(=O)c1cccc(NC(=O)Nc2cccc(C(=O)Nc3cc(C(=O)Nc4ccc(S(=O)(=O)O)c5cc(S(=O)(=O)O)cc(S(=O)(=O)O)c45)ccc3C)c2)c1 | > 100 | > 100 | > 100 | > 100 | > 100 | > 100 | > 100 | > 100 | > 89.4 | > 100 | – | –
CCO/N=C\c1ccc2oc(-c3ccccc3)cc(=O)c2c1 | > 31.6 | 36.8 | 24.4 | 11.6 | 0.913 | 13.1 | 43.1 | 42.8 | 7.01 | 18 | – | –
COc1ccc(-c2c(C#N)c(N)[nH]c(=S)c2C#N)cc1 | > 100 | > 100 | 85.4 | 98.3 | > 100 | > 100 | 86 | 66.6 | > 100 | > 100 | – | –
CC1=C(C)C(=O)OC(C(C)(O)C2(O)CC3OC34C3CC(O)C56OC5C=CC(=O)C6(C)C3CCC42C)C1 (configuration not stated) | 12.6 | 10.4 | 3.11 | 6.68 | 6.23 | 13.1 | 3.53 | 16.3 | 12.9 | > 39.3 | – | –
O=C1OC(C(O)CO)C(C(O)CO)OC1=O (configuration not stated) | > 10 | > 10 | > 10 | > 10 | > 10 | > 10 | > 10 | > 10 | > 10 | > 10 | – | –
ClCCCN1CCN(CCCl)CC1 | 872 | 873 | 423 | 439 | 430 | > 768 | 390 | 885 | 879 | 736 | 77.2 | 84.3
CCOC(=O)NC(Nc1ccc(F)cc1F)(C(F)(F)F)C(F)(F)F | > 100 | > 100 | > 100 | > 100 | > 100 | > 100 | > 100 | > 100 | > 100 | > 100 | – | –
COC(=O)C1(Cc2ccc3c(c2)CCC3)Cc2ccc3c(c2C1=O)CCC3 (configuration not stated) | 33.1 | > 100 | > 46.1 | 22.7 | 52.8 | > 87.6 | > 63.8 | 16.4 | > 87.2 | > 20.4 | – | –
CCC1c2[nH]c3ccccc3c2C[C@H]2C(=O)NC(C)C(=O)N12 (some centres not stated) | > 100 | > 100 | > 100 | > 100 | > 100 | > 100 | > 100 | > 100 | > 100 | > 100 | – | –
O=C(CCCc1cccc2[nH]c3c(c12)CN(Cc1ccccc1)CC3)c1ccc(F)cc1 | > 100 | > 100 | > 100 | > 100 | > 100 | > 100 | > 100 | > 100 | > 100 | > 100 | – | –
COc1ccc(SCc2cc(OC)ccc2OC)cc1 | > 100 | > 100 | > 74.3 | > 100 | > 91.7 | > 100 | > 100 | 97.7 | > 100 | > 100 | – | –
Nc1cc(C2CCCc3c2[nH]c2ccccc32)ccc1O (configuration not stated) | > 100 | > 100 | > 100 | > 100 | > 100 | > 100 | > 100 | > 100 | > 100 | > 100 | – | –
CC(NC(=O)CCS)C(=O)NC(C)C(=O)NC(Cc1c[nH]c2ccccc12)C(=O)NC(Cc1c[nH]cn1)C(=O)NC(CO)C(=O)NC(Cc1c[nH]c2ccccc12)C(=O)NCCCCC(=O)NC(C)C(=O)NC(CCC(N)=O)C(=O)NC(CCCCN)C(=O)NC(C)C(=O)NC(CCCNC(=N)N)C(=O)NC(CCCCN)C(N)=O (configuration not stated) ([Mpa]AAWHSW[Ava]AQKARK-NH2; configuration not given here) | > 100 | > 100 | > 100 | > 100 | > 100 | > 100 | 36.9 | > 100 | > 100 | > 100 | – | –
CC1OC(NCCNCCNC2OC(C)C(O)C(O)C2O)C(O)C(O)C1O (configuration not stated) | > 100 | > 100 | > 100 | > 100 | > 100 | > 100 | > 100 | > 100 | > 100 | > 100 | – | –
